Source: patent publication US5747235A, “Silver halide light sensitive emulsion layer having enhanced photographic sensitivity” (Eastman Kodak Company, priority 1996, dated 1998)

Columns and labels:
[1] = fragmentation rate constant kfr by laser flash photolysis; format: physicochemical; conditions: Table B; CH3CN/H2O (4:1)
From the text: The kinetics of the bond cleavage or fragmentation reaction can be measured by conventional laser flash photolysis. […] The specific experimental apparatus we used to measure fragmentation rate constants and radical oxidation potentials is described in detail below.
(b) Fragmentation Rate Constant Determination
These absorptions were used to determine the kinetics of the fragmentation reactions of the radical cations of the X-Y. Excitation of 9,10-dicyanoanthracene (DCA) in the presence of biphenyl and the X-Y donor, as described above, results in the formation of the DCA^.cndot.- and the X-Y^.cndot.+. By using a concentration of X-Y of ca. 10^-2 M, the X-Y^.cndot.+ can be formed within ca. 20 ns of the laser pulse. […] The monitoring wavelengths used were somewhat different for the different donors, but were mostly around 470-530 nm. […] Alternatively, when the decay rate of the X-Y^.cndot.+ was less than 10^6 s^-1, the solutions were purged with oxygen.
The experiments measuring the fragmentation rate constants were performed in acetonitrile with the addition of 20% water, so that all of the salts could be easily solubilized. Most experiments were performed at room temperature. […] When this happened, the fragmentation rate constants were measured as a function of temperature, and the rate constant at room temperature determined by extrapolation.

[2] = oxidation potential E2 of radical X by laser flash photolysis; format: physicochemical; conditions: Table C; by parent XY compound; < = more negative than
From the text: In this technique, the compound X-Y is oxidized by an electron transfer reaction initiated by a short laser pulse. The oxidized form of X-Y then undergoes the bond cleavage reaction to give the radical X^.cndot.. X^.cndot. is then allowed to interact with various electron acceptor compounds of known reduction potential. […] The experimental details are set forth more fully below. The oxidation potentials (E2) for radicals X^.cndot. for typical compounds useful in accordance with our invention are given in Table C. Where only limits on potentials could be determined, the following notation is used: <-0.90 V should be read as "more negative than -0.90 V" and >-0.40 V should be read as "less negative than -0.40 V".
(a) Oxidation Potential of Radical X.cndot.
The laser flash photolysis measurements were performed using a nanosecond pulsed excimer (Questek model 2620, 308 nm, ca. 20 ns, ca. 100 mJ) pumped dye laser (Lambda Physik model FL 3002). The laser dye was DPS (commercially available from Exciton Co.) in p-dioxane (410 nm, ca. 20 ns, ca. 10 mJ). The analyzing light source was a pulsed 150W xenon arc lamp (Osram XBO 150/W). The arc lamp power supply was a PRA model 302 and the pulser was a PRA model M-306. The pulser increased the light output by ca. 100 fold, for a time period of ca. 2-3 ms. The analyzing light was focussed through a small aperture (ca. 1.5 mm) in a cell holder designed to hold 1 cm^2 cuvettes. The laser and analyzing beams irradiated the cell from opposite directions and crossed at a narrow angle (ca. 15°). After leaving the cell, the analyzing light was collimated and focussed onto the slit (1 mm, 4 nm bandpass) of an ISA H-20 monochromator. The light was detected using 5 dynodes of a Hamamatsu model R446 photomultiplier. The output of the photomultiplier tube was terminated into 50 ohm, and captured using a Tektronix DSA-602 digital oscilloscope. The entire experiment is controlled from a personal computer.
The experiments were performed either in acetonitrile, or a mixture of 80% acetonitrile and 20% water. The first singlet excited state of a cyanoanthracene (A), which acted as the electron acceptor, was produced using the nanosecond laser pulse at 410 nm. […] Secondary electron transfer then occurred between B^.cndot.+ and the lower oxidation potential electron donor X-Y, to generate X-Y^.cndot.+ in high yield. For the investigations of the oxidation potentials of the radicals X^.cndot., typically the cyanoanthrancene concentration was ca. 2×10^-5 M to 10^-4 M the biphenyl concentration was ca. 0.1M. The concentration of the X-Y donor was ca. 10^-3 M. The rates of the electron transfer reactions are determined by the concentrations of the substrates. The concentrations used ensured that the A^.cndot.- and the X-Y^.cndot.+ were generated within 100 ns of the laser pulse. The radical ions could be observed directly by means of their visible absorption spectra. The kinetics of the photogenerated radical ions were monitored by observation of the changes in optical density at the appropriate wavelengths.
The reduction potential (Ered) of 9,10-dicyanoanthracene (DCA) is -0.91 V. In a typical experiment, DCA is excited and the initial photo-induced electron transfer from the biphenyl (B) to the DCA forms a DCA^.cndot.-, which is observed at its characteristic absorption maximum (λobs =705 nm), within ca. 20 ns of the laser pulse. Rapid secondary electron transfer occurs from X-Y to B^.cndot.+ to generate X-Y^.cndot.+, which fragments to give X^.cndot.. A growth in absorption is then observed at 705 nm with a time constant of ca. 1 microsecond, due to reduction of a second DCA by the X^.cndot.. The absorption signal with the microsecond growth time is equal to the size of the absorption signal formed within 20 ns.
If the oxidation potential of X^.cndot. is not sufficiently negative to reduce DCA, an estimate of its oxidation potential was obtained by using other cyanoanthracenes as acceptors. […]

[3] = oxidation potential E1 by cyclic voltammetry; format: physicochemical; conditions: Table A; 80%/20% acetonitrile/water, 0.1M lithium perchlorate, 25° C.
Protocol: Oxidation potentials are well known and can be found, for example, in "Encyclopedia of Electrochemistry of the Elements", Organic Section, Volumes XI-XV, A. Bard and H. Lund (Editors) Marcel Dekker Inc., NY. (1984). E1 can be measured by the technique of cyclic voltammetry. In this technique, the electron donating compound is dissolved in a solution of 80%/20% by volume acetonitrile to water containing 0.1M lithium perchlorate. Oxygen is removed from the solution by passing nitrogen gas through the solution for 10 minutes prior to measurement. A glassy carbon disk is used for the working electrode, a platinum wire is used for the counter electrode, and a saturated calomel electrode (SCE) is used for the reference electrode. Measurement is conducted at 25° C. using a potential sweep rate of 0.1 V/sec. The oxidation potential vs. SCE is taken as the peak potential of the cyclic voltammetric wave.

[4] = Example 7: photographic speed and fog with/without HB3, 365 nm exposure, emulsion T-2; conditions: emulsions containing red or blue sensitizing dye and electron donor
Protocol: (§1) For photographic evaluation, each of the coating strips was exposed for 0.1 sec to a 365 nm emission line of a Hg lamp filtered through a Kodak Wratten filter number 18A and a step wedge ranging in density from 0 to 4 density units in 0.2 density steps. The exposed film strips were developed for 6 min in Kodak Rapid X-ray Developer (KRX). S365, relative sensitivity at 365 nm, was evaluated at a density of 0.2 units above fog.
An AgBrI tabular silver halide emulsion (Emulsion T-2) was prepared containing 4.05% total I distributed such that the central portion of the emulsion grains contained 1.5% I and the perimeter area contained substantially higher I, as described by Chang et. al., U.S. Pat. No. 5,314,793. […] This emulsion was precipitated using deionized gelatin. The emulsion was sulfur sensitized by adding 8.5×10^-6 mole 1,3-dicarboxymethyl-1,3-dimethyl-2-thiourea /mole Ag at 40° C.; the temperature was then raised to 60° C. at a rate of 5° C./3 min and the emulsions held for 20 min before cooling to 40° C. The chemically sensitized emulsion was then used to prepare coatings containing the fragmentable two-electron donor compounds. […] Where present, the blue sensitizing dye D-I or the red sensitizing dye D-II were added from methanol solution to the emulsion at 40° C. after the chemical sensitization and disulfocatechol addition. The fragmentable two-electron donor compounds were added to the emulsion at 40° C. and the coatings were prepared and tested as described in Example 1, except that the additional gelatin used to prepare the coatings described in Table III was deionized gelatin.
Where present the blue sensitizing dye D-I or the red sensitizing dye D-II were added from methanol solution to the emulsion at 40° C. after the chemical sensitization and disulfocatechol addition. The fragmentable two-electron donating compounds were then added to the emulsion and coatings prepared as described in Example 1, except that the additional gelatin used to prepare the coatings described in Table VII was deionized gelatin. The coatings were tested for their response to a 365 nm exposure as described in Example 1.

[5] = Example 9: photographic speed and fog, 365 nm exposure, red dyed emulsion T-2; conditions: for Fog / S365: dye II 0.86 x10^-3; for S365: undyed control=100, dyed control 62
Protocol: as §1
An AgBrI tabular silver halide emulsion (Emulsion T-2) was prepared containing 4.05% total I distributed such that the central portion of the emulsion grains contained 1.5% I and the perimeter area contained substantially higher I, as described by Chang et. al., U.S. Pat. No. 5,314,793. […] This emulsion was precipitated using deionized gelatin. The emulsion was sulfur sensitized by adding 8.5×10^-6 mole 1,3-dicarboxymethyl-1,3-dimethyl-2-thiourea /mole Ag at 40° C.; the temperature was then raised to 60° C. at a rate of 5° C./3 min and the emulsions held for 20 min before cooling to 40° C. The chemically sensitized emulsion was then used to prepare coatings containing the fragmentable two-electron donor compounds. All of the experimental coating variations in Table III contained the hydroxybenzene 2,4-disulfocatechol (HB3) at a concentration of 13 mmole/ mole Ag, added to the melt before the addition of any further addenda. Where present, the blue sensitizing dye D-I or the red sensitizing dye D-II were added from methanol solution to the emulsion at 40° C. after the chemical sensitization and disulfocatechol addition. The fragmentable two-electron donor compounds were added to the emulsion at 40° C. and the coatings were prepared and tested as described in Example 1, except that the additional gelatin used to prepare the coatings described in Table III was deionized gelatin.
The sulfur sensitized AgBrI tabular emulsion T-2 as described in Example 3 was used to prepare coatings of the fragmentable two-electron donors S-15, S-14, S-13, and S-11, as described in Table IX. All of the experimental coating variations in Table IX contained the hydroxybenzene, 2,4-disulfocatechcol (HB3) at a concentration of 13 mmole/mole Ag, added to the melt before any further addenda. Where present, the red sensitizing dye D-II was added from methanol solution to the emulsion at 40° C. after the chemical sensitization and disulfocatechol addition. The fragmentable two-electron donor compounds were then added to the emulsion and coatings prepared and tested as described in Example I, except that the additional gelatin used to prepare the coatings described in Table IX was deionized gelatin.

Row | Compound | kfr, Rate Constants for Decarboxylation of Radical Cations [1] | Oxidation Potentials of Radicals (X*), E2 [2] [V] | Oxidation Potential of X--Y, E1 [3] [V vs SCE] | also measured
1 | CC(C(=O)O)N(CC(=O)O)c1ccccc1 (stereo not drawn) [Compound 14] | > 2e+07 s⁻¹ | < -0.9 | 0.50 | –
2 | COc1ccc(N(CC(=O)O)C(C)C(=O)O)cc1 (stereo not drawn) [Compound 15] | 90000 s⁻¹ | < -0.9 | 0.36 | –
3 | Cc1ccc(N(CC(=O)O)C(C)C(=O)O)cc1 (stereo not drawn) [Compound 20] | 8.1e+06 s⁻¹ | < -0.9 | 0.46 | –
4 | Cc1ccc(NC(CC(=O)O)C(=O)O)cc1 (stereo not drawn) [Compound 29] | 5.4e+06 s⁻¹ | < -0.9 | 0.52 | –
5 | CCCCN(c1ccc(OC)cc1)C(C)C(=O)O (stereo not drawn) [Compound 36] | 1.1e+06 s⁻¹ | < -0.9 | 0.22 | –
6 | Cn1cc(C(C)(C)C(=O)O)c2ccccc21 [Compound 44] | 530000 s⁻¹ | -0.81 | 0.64 | –
7 | Cc1ccc(NC(C)C(=O)O)cc1 (stereo not drawn) [Compound 54] | 1.4e+07 s⁻¹ | < -0.9 | 0.44 | –
8 | O=C(O)C(O)c1c2ccccc2cc2ccccc12 (stereo not drawn) [Compound 56] | 120000 s⁻¹ | < -0.9 | 0.65 | –
9 | CC(C(=O)O)N1c2ccccc2Sc2ccccc21 (stereo not drawn) [Compound 57] | ca. 1 × 10^5 s^-1 | < -0.9 | 0.49 | –
10 | O=S(=O)(O)c1cc(O)c(O)c(S(=O)(=O)O)c1 [HB3, 2,4-disulfocatechol, reference compound] | – | – | – | effect on fog [4]: the level of fog can be lowered
11 | N-(4-Carboxyethylphenyl)-N-(2-thioethyl-ethyl)alanine sodium salt [Compound S-15] | – | – | – | Fog ([5]; 0.007 x10^-3 mol/mol Ag): 0.13; S365 ([5]; 0.007 x10^-3 mol/mol Ag): 95; Fog ([5]; 0.022 x10^-3 mol/mol Ag): 0.23; S365 ([5]; 0.022 x10^-3 mol/mol Ag): 105; 365 nm sensitivity of dyed emulsion ([5]; dye D-II): restored to that of the undyed emulsion
